Measured values reported in the NIST ThermoML archive (doi:10.1016/j.fluid.2010.10.003).
Numbers after ± are expanded uncertainties.

Legend:
[1] = refractive index (Na D-line) (dimensionless); settings: 298.15 K; 101.33 kPa; Liquid; Standard Abbe refractometry
[2] = 298.15 K, 101.33 kPa, Liquid; for viscosity: Capillary tube (Ostwald / Ubbelohde) method; for mass density: Vibrating tube method
[3] = xn = mol fraction of the nth substance listed; settings: 298.15 K, 101 kPa, Liquid; for viscosity: Capillary tube (Ostwald / Ubbelohde) method; for mass density: Vibrating tube method
[4] = refractive index (Na D-line) (dimensionless); xn = mol fraction of the nth substance listed; settings: 298.15 K, 101 kPa, Liquid, Standard Abbe refractometry

CCCC[n+]1ccn(C)c1.O=S(=O)([N-]S(=O)(=O)C(F)(F)F)C(F)(F)F
refractive index [1]: 1.42692 ± 0.001
viscosity [2]: 50.68 ± 1.4 mPa·s
mass density [2]: 1436.58 ± 0.62 kg/m3

CCCC[n+]1ccn(C)c1.O=S(=O)([N-]S(=O)(=O)C(F)(F)F)C(F)(F)F + CC(C)O
viscosity ([3]; x2 = 0.0515): 45.44 ± 0.56 mPa·s
viscosity ([3]; x2 = 0.0962): 41.2 ± 0.51 mPa·s
viscosity ([3]; x2 = 0.1921): 33.45 ± 0.4 mPa·s
viscosity ([3]; x2 = 0.3213): 24.5 ± 0.29 mPa·s
viscosity ([3]; x2 = 0.3896): 20.46 ± 0.24 mPa·s
viscosity ([3]; x2 = 0.4869): 15.84 ± 0.19 mPa·s
viscosity ([3]; x2 = 0.5173): 14.67 ± 0.17 mPa·s
viscosity ([3]; x2 = 0.6074): 11.22 ± 0.13 mPa·s
viscosity ([3]; x2 = 0.6943): 8.545 ± 0.099 mPa·s
viscosity ([3]; x2 = 0.7996): 5.859 ± 0.068 mPa·s
viscosity ([3]; x2 = 0.8995): 3.898 ± 0.045 mPa·s
mass density ([3]; x2 = 0.0515): 1427.23 ± 0.58 kg/m3
mass density ([3]; x2 = 0.0962): 1418.52 ± 0.56 kg/m3
mass density ([3]; x2 = 0.1921): 1397.79 ± 0.51 kg/m3
mass density ([3]; x2 = 0.3213): 1363.98 ± 0.45 kg/m3
mass density ([3]; x2 = 0.3896): 1342.5 ± 0.42 kg/m3
mass density ([3]; x2 = 0.4869): 1306.05 ± 0.4 kg/m3
mass density ([3]; x2 = 0.5173): 1292.91 ± 0.41 kg/m3
mass density ([3]; x2 = 0.6074): 1247.91 ± 0.36 kg/m3
mass density ([3]; x2 = 0.6943): 1192.86 ± 0.33 kg/m3
mass density ([3]; x2 = 0.7996): 1102.82 ± 0.27 kg/m3
mass density ([3]; x2 = 0.8995): 978.52 ± 0.17 kg/m3
refractive index ([4]; x2 = 0.0515): 1.42621 ± 0.00037
refractive index ([4]; x2 = 0.0962): 1.42549 ± 0.00036
refractive index ([4]; x2 = 0.1921): 1.42385 ± 0.00036
refractive index ([4]; x2 = 0.3213): 1.42124 ± 0.00035
refractive index ([4]; x2 = 0.3896): 1.41962 ± 0.00035
refractive index ([4]; x2 = 0.4869): 1.41685 ± 0.00035
refractive index ([4]; x2 = 0.5173): 1.41578 ± 0.00034
refractive index ([4]; x2 = 0.6074): 1.4124 ± 0.00034
refractive index ([4]; x2 = 0.6943): 1.40818 ± 0.00034
refractive index ([4]; x2 = 0.7996): 1.40129 ± 0.00033
refractive index ([4]; x2 = 0.8995): 1.39152 ± 0.00033

CC(=O)OC(C)C [1-methylethyl ethanoate]
refractive index [1]: 1.3748 ± 0.00032
viscosity [2]: 0.481 ± 0.006 mPa·s
mass density [2]: 866.21 ± 0.12 kg/m3

CC(=O)OC(C)C [1-methylethyl ethanoate] + CCCC[n+]1ccn(C)c1.O=S(=O)([N-]S(=O)(=O)C(F)(F)F)C(F)(F)F
viscosity ([3]; x1 = 0.0514): 44.31 ± 0.55 mPa·s
viscosity ([3]; x1 = 0.1096): 38.56 ± 0.47 mPa·s
viscosity ([3]; x1 = 0.1554): 33.87 ± 0.41 mPa·s
viscosity ([3]; x1 = 0.1972): 30.34 ± 0.36 mPa·s
viscosity ([3]; x1 = 0.2961): 22.58 ± 0.27 mPa·s
viscosity ([3]; x1 = 0.4241): 14.46 ± 0.17 mPa·s
viscosity ([3]; x1 = 0.5168): 10.07 ± 0.12 mPa·s
viscosity ([3]; x1 = 0.5998): 6.918 ± 0.081 mPa·s
viscosity ([3]; x1 = 0.7017): 4.356 ± 0.051 mPa·s
viscosity ([3]; x1 = 0.7981): 2.363 ± 0.028 mPa·s
viscosity ([3]; x1 = 0.8918): 1.41 ± 0.016 mPa·s
mass density ([3]; x1 = 0.0514): 1425.08 ± 0.58 kg/m3
mass density ([3]; x1 = 0.1096): 1411.17 ± 0.54 kg/m3
mass density ([3]; x1 = 0.1554): 1399.42 ± 0.51 kg/m3
mass density ([3]; x1 = 0.1972): 1388.1 ± 0.49 kg/m3
mass density ([3]; x1 = 0.2961): 1358.2 ± 0.43 kg/m3
mass density ([3]; x1 = 0.4241): 1312.34 ± 0.38 kg/m3
mass density ([3]; x1 = 0.5168): 1272.49 ± 0.37 kg/m3
mass density ([3]; x1 = 0.5998): 1230.54 ± 0.34 kg/m3
mass density ([3]; x1 = 0.7017): 1168.62 ± 0.28 kg/m3
mass density ([3]; x1 = 0.7981): 1095.44 ± 0.23 kg/m3
mass density ([3]; x1 = 0.8918): 1005.35 ± 0.15 kg/m3
refractive index ([4]; x1 = 0.0514): 1.42609 ± 0.00037
refractive index ([4]; x1 = 0.1096): 1.42501 ± 0.00036
refractive index ([4]; x1 = 0.1554): 1.42412 ± 0.00036
refractive index ([4]; x1 = 0.1972): 1.42326 ± 0.00036
refractive index ([4]; x1 = 0.2961): 1.42092 ± 0.00035
refractive index ([4]; x1 = 0.4241): 1.41733 ± 0.00034
refractive index ([4]; x1 = 0.5168): 1.4142 ± 0.00034
refractive index ([4]; x1 = 0.5998): 1.4107 ± 0.00034
refractive index ([4]; x1 = 0.7017): 1.40538 ± 0.00033
refractive index ([4]; x1 = 0.7981): 1.39882 ± 0.00033
refractive index ([4]; x1 = 0.8918): 1.39016 ± 0.00032

CC(C)O [propan-2-ol]
refractive index [1]: 1.37502 ± 0.00033
viscosity [2]: 2.073 ± 0.024 mPa·s
mass density [2]: 780.88 ± 0.15 kg/m3
